Measurements as given in PMC7115581 (European Journal of Medicinal Chemistry, 2016).
pEC50: −log10 of the molar value.

Assays:
[1] = tested on: varicella zoster virus (VZV); details: for anti-VZV activity (in words): HEL cells; for antiviral activity (in words): at 100 μM
[2] = tested on: broad variety of RNA viruses, including HIV-1 and HIV-2, feline coronavirus, vesicular stomatitis virus, Coxsackie virus B4, respiratory syncytial virus …; type: cell-based
HCMV, HSV-1, HSV-2 = type: cell-based; details: HCMV AD-169 and Davis, HSV-1 KOS and TK- KOS ACVr, HSV-2 G; HEL cell cultures
[3] = tested on: varicella zoster virus (VZV); assay: in vitro; details: human
[4] = tested on: human embryonic lung (HEL) cells; details: Table 2, concentration that causes a microscopically detectable alteration of morphology
[5] = tested on: varicella zoster virus (VZV); assay: microbe, parasite or virus in culture; details: Human alphaherpesvirus 3, HEL, read-out: EC50 against VZV
[6] = tested on: human embryonic lung (HEL) cells; assay: Cytotoxicity, inhibition of HEL cell growth; type: cell-based; details: for cytotoxic activity (in words): at 100 μM
[7] = tested on: varicella-zoster virus (VZV) TK+ OKA strain; assay: microbe, parasite or virus in culture; type: cell-based; details: Human alphaherpesvirus 3, HEL, read-out: EC50 TK+ OKA
[8] = Cytotoxicity, inhibition of HEL cell growth; type: cell-based, human; details: human, human embryonic lung (HEL) cells, CC50, cytotoxic concentration required to reduce HEL cell growth by 50%; 3 days
[9] = tested on: human cytomegalovirus (HCMV) Davis strain; assay: microbe, parasite or virus in culture; type: cell-based; details: Human betaherpesvirus 5, HEL, read-out: Antiviral activity EC50 HMCV Davis

| SMILES | anti-VZV activity (in words) [1] | Cytotoxicity MMC [4] [µM] | also measured |
| --- | --- | --- | --- |
| CC(=O)N(CCc1cn(C)c2ccccc12)Cc1ccc(-c2ccccc2)cc1 [Compound 17h] | complete loss of the antiviral activity | – | – |
| CC(=O)N(CCc1ccc(-c2ccccc2)cc1)CCc1cn(C)c2ccccc12 [Compound 17a] | – | 20 | inhibitory activity against RNA viruses (in words) [2]: totally inactive; activity against other Herpesviridae (in words) (HCMV, HSV-1, HSV-2): totally inactive; selectivity ratio [3]: 10 to 20; pEC50 [5]: 5.44 to 5.77 |
| CCCn1cc(CN2CCCCC2)c2ccccc21 [Compound 4b] | – | >100 | antiviral activity (in words) [1]: do not displayed antiviral or cytotoxic activities; cytotoxic activity (in words) [6]: do not displayed antiviral or cytotoxic activities |
| CC(=O)N(CCc1cn(C)c2ccccc12)Cc1ccc(Oc2ccccc2)cc1 [Compound 17i] | complete loss of the antiviral activity | – | – |
| CCCn1cc(CNCCc2ccc(-c3ccccc3)cc2)c2ccccc21 [Compound 4c] | – | 4 | – |
| CCCn1cc(CN2CCCCC2)c2cc(NC(=O)c3ccccc3)ccc21 [Compound 8c] | – | 100 | – |
| CCCn1cc(CNCCc2ccc(-c3ccccc3)cc2)c2cc(CNc3ccc(Cl)cc3)ccc21 [Compound 8b] | – | 20 | – |
| CC(=O)N(CCc1cn(C)c2ccccc12)c1cccc2ccccc12 [Compound 17e] | complete loss of the antiviral activity | – | – |
| CCCn1cc(C(=O)c2ccc(Cl)cc2)c2ccccc21 [Compound 4a] | – | >100 | antiviral activity (in words) [1]: do not displayed antiviral or cytotoxic activities; cytotoxic activity (in words) [6]: do not displayed antiviral or cytotoxic activities |
| CC(=O)N(CCc1cn(C)c2ccccc12)Cc1ccc2ccccc2c1 [Compound 17f] | complete loss of the antiviral activity | – | – |
| CCCn1cc(CN2CCCCC2)c2cc(CNc3ccc(Cl)cc3)ccc21 [Compound 8a] | – | 20 | – |
| c1ccc(-c2ccc(Cn3cc(CN4CCCCC4)c4ccccc43)cc2)cc1 [Compound 4d] | – | 20 | – |
| Cn1cc(CCN(CCc2ccc(-c3ccccc3)cc2)C(=O)OC(C)(C)C)c2ccccc21 [Compound 18d] | annihilation of antiviral activity | – | – |
| CC(=O)N(CCc1cn(C)c2ccccc12)Cc1cccc2ccccc12 [Compound 17g] | complete loss of the antiviral activity | – | – |
| O=c1[nH]c(=O)n([C@H]2C[C@H](O)[C@@H](CO)O2)cc1/C=C/Br [Brivudin, brivudin, reference compound] | – | >250 | pEC50 [7]: 7.52 to 7.70 |
| COC(=O)c1ccc(CNCCc2cn(Cc3ccc(-c4ccccc4)cc3)c3ccccc23)cc1 [Compound 15] | – | 20 | – |
| Nc1nc2c(ncn2COCCO)c(=O)[nH]1 [Acyclovir, acyclovir, reference compound] | – | >250 | CC50 ([6]; cytotoxic concentration required to reduce HEL cell growth by 50%, 3 days): 191000 nM; CC50 at 3 days [8]: 224000 nM |
| Cn1cc(CCN(CCc2ccc(-c3ccccc3)cc2)C(=O)C2CCCCC2)c2ccccc21 [Compound 18a] | annihilation of antiviral activity | – | – |
| Cn1cc(CCNCCc2ccc(-c3ccccc3)cc2)c2ccccc21 [Compound 16a] | – | >4 | – |
| Nc1ccn(C[C@@H](CO)OCP(=O)(O)O)c(=O)n1.O.O [Cidofovir, reference compound] | – | >250 | pEC50 [9]: 6.29 |
| CC(=O)N(CCc1cn(C)c2ccccc12)c1ccc2ccccc2c1 [Compound 17d] | complete loss of the antiviral activity | – | – |
| Cn1cc(CCN(CCc2ccc(-c3ccccc3)cc2)C(=O)CCN2CCOCC2)c2ccccc21 [Compound 18c] | annihilation of antiviral activity | – | – |
